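Interpolation was linear, between the two tested concentrations surrounding the appropriate level; five concentrations were tested over 48 hours in 96-well plates. At the TGI there is no net growth.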
Experiments:
Test in all cases: inhibition of tumour cell growth, NCI panel, 48 h
CCRF-CEM leukemia = system: CCRF-CEM leukemia
HL-60(TB) leukemia = system: HL-60(TB) leukemia
HS 578T breast = system: HS 578T breast
NCI-H226 lung = system: NCI-H226 lung
NCI-H460 lung = system: NCI-H460 lung
SK-MEL-28 melanoma = system: SK-MEL-28 melanoma
SR leukemia = system: SR leukemia
T-47D breast = system: T-47D breast
PC-3 prostate = system: PC-3 prostate
RXF 393 renal = system: RXF 393 renal

Compound	TGI (CCRF-CEM leukemia) [µM]	TGI (HL-60(TB) leukemia) [µM]	TGI (HS 578T breast) [µM]	TGI (NCI-H226 lung) [µM]	TGI (NCI-H460 lung) [µM]	TGI (SK-MEL-28 melanoma) [µM]	TGI (SR leukemia) [µM]	TGI (T-47D breast) [µM]	TGI (PC-3 prostate) [µM]	TGI (RXF 393 renal) [µM]
CN(C)c1ccc(S(=O)Nc2ccccc2)cc1 (stereo not drawn)	> 100	> 100	> 100	> 100	> 100	> 100	> 100	65.6	–	–
COc1cc(NS(C)(=O)=O)ccc1Nc1cc(C)[nH]c2ccc3nccc3c12	–	> 100	> 100	> 100	> 100	> 100	–	> 100	> 100	–
COc1ccc(C2=N/C(=C\c3ccccc3)C(=O)O2)cc1	> 100	31	> 100	98.1	> 100	> 100	57.5	–	> 100	> 100
CCN(CCCN(CC)C(=O)Nc1c(C)cccc1C)C(=O)Nc1c(C)cccc1C	–	–	> 100	> 100	> 100	> 100	–	> 100	> 100	> 100
COc1cccc(CCCNC(=O)Cc2cc(OC)c(OC)cc2CO)c1	> 100	> 100	> 100	> 100	> 100	> 100	> 100	> 100	> 100	–
CN(C)C1(N(C)C)Oc2c(c(=O)n(C)c(=O)n2C)C(c2ccc(Br)cc2)C1(F)F (stereo not drawn)	> 100	–	–	> 100	> 100	> 100	–	> 100	> 100	> 100
CCOC(=O)Cn1c(=O)c2nc(SC)sc2n(-c2ccccc2)c1=O	> 100	> 100	> 100	> 100	> 100	> 100	> 100	–	> 100	> 100
O=C(CC(C(=O)c1ccsc1)c1ccc2c(c1)OCO2)c1ccccc1 (stereo not drawn)	> 100	> 100	> 100	> 100	> 100	> 100	> 100	> 100	–	> 100
CC1(C)C2CCC1(C)[C@H](n1c(=O)n([C@@H]3CC4CCC3(C)C4(C)C)c(=O)n([C@@H]3CC4CCC3(C)C4(C)C)c1=O)C2	–	63.1	> 100	76.4	> 100	> 100	> 100	> 100	> 100	55.8
CCOC(=O)c1c(C)nc2c3ccccc3c(C#N)c(C)n12	> 100	> 100	> 100	> 100	> 100	> 100	> 100	–	> 100	> 100
c1c[nH]c(-c2ccc(-c3ccc[nH]3)c3nsnc23)c1	> 35.3	> 100	> 100	> 100	> 100	> 100	–	–	> 100	> 66.8
O=c1[nH]c(=O)n(C2OC(CO)C(O)C2O)c2nc(-c3ccc(-c4ccccc4)cc3)cnc12 (stereo not drawn)	> 100	–	> 100	> 100	> 100	–	–	> 100	> 100	> 100
CSC(=S)N/N=C(\C)c1ccc(S(=O)(=O)N(C)c2ccccc2)cc1	–	> 100	87	> 100	> 100	> 100	> 100	> 100	> 100	> 100
Cc1cc2c3c(nc4ccccc42)C(=O)c2ccccc2-c3n1	73.3	–	46.7	67	–	43.3	37.2	> 100	80.9	> 100
COC(=O)C1CCC(=O)N1C(c1ccc(OC)cc1)c1ccc2c(c1)OCO2 (stereo not drawn)	> 100	91.2	> 100	> 100	> 100	> 100	> 100	> 100	> 100	–
CC1=NS(=O)(=O)c2ccccc2N1	> 100	> 100	–	> 100	> 100	> 100	> 100	–	–	> 100
Oc1ccc([I+]c2ccccc2)cc1O	60.4	47.1	> 100	> 100	> 100	> 100	> 100	–	64.1	> 100
CCOC(=O)c1cn2c(nc1=O)N[C@H]1CCCC[C@@H]12	> 100	> 100	> 100	> 100	> 100	> 100	–	> 100	> 100	–
CC1=C[C@@H]2Cc3nc4cc(Cl)ccc4c(N)c3[C@H](C1)C2	74	35.3	9.75	32.5	23.1	25.1	–	37.4	26.9	18.3

Compound	TGI (CCRF-CEM leukemia) [µM]	TGI (HL-60(TB) leukemia) [µM]	TGI (HS 578T breast) [µM]	TGI (NCI-H226 lung) [µM]	TGI (NCI-H460 lung) [µM]	TGI (SK-MEL-28 melanoma) [µM]	TGI (SR leukemia) [µM]	TGI (T-47D breast) [µM]	TGI (PC-3 prostate) [µM]	TGI (RXF 393 renal) [µM]
O=C(O)CCC(=O)OC1N=C(c2ccccc2Cl)c2cc([N+](=O)[O-])ccc2NC1=O (stereo not drawn)	> 100	> 100	> 100	–	> 100	> 100	–	> 100	> 100	> 100
CS(=O)(=O)OCC(CCl)(CCl)CCl	> 100	–	> 100	> 100	> 100	> 100	> 100	> 100	> 100	> 100
CCCCCCOc1ccc(C(=O)NOC)cc1	> 100	86.8	> 100	> 100	> 100	> 100	> 100	–	> 100	> 100
CCNC(=O)Cc1nc2c(N)ncnc2n1C1OC(CO)C(O)C1O (stereo not drawn)	–	> 100	> 100	> 100	> 100	> 100	> 100	> 100	> 100	–
O=C1NCCN1/N=C/c1c(Cl)n(-c2ccccc2)c2ccccc12	> 100	> 100	43.8	54	–	–	85.7	41	98.8	–
CC1CCC(C(=O)O)(C(Br)C(=O)O)CC1 (stereo not drawn)	> 100	> 100	–	> 100	> 100	> 100	> 100	–	> 100	> 100
Cc1nc(N)c(N2CCN([N+](=O)[O-])CC2)c(=O)[nH]1	> 100	> 100	> 100	> 100	> 100	> 100	> 100	> 100	> 100	–
CSC(=S)N(C)C	> 100	> 100	> 100	> 100	> 100	> 100	> 100	> 100	–	> 100
NS(=O)(=O)c1cc2c(cc1Cl)NC(CCC(=O)O)=NS2(=O)=O	–	–	> 100	> 100	> 100	> 100	–	> 100	> 100	> 100
CC(=N/N=C/c1ccccn1)/C(C)=N/N=C(C)/C(C)=N/N=C(C)/C(C)=N/N=C(C)/C(C)=N\N=C\c1ccccn1	–	> 100	> 100	> 100	> 100	> 100	> 100	> 100	> 100	> 100
O=C1c2ccccc2-c2c1c(-c1ccc(F)cc1)nc1ccc3ccccc3c21	> 100	–	> 100	> 100	> 100	> 100	–	> 100	> 100	> 100
O=c1c2sc(=S)n(-c3ccc(F)cc3)c2ncn1/N=C/c1ccc(F)cc1F	> 100	> 100	76.3	87	> 100	> 100	> 100	–	> 100	45.5
Cc1cc(N(CCOS(C)(=O)=O)CCOS(C)(=O)=O)ccc1C=O	> 100	> 100	94	–	6.35	31.3	–	–	> 100	–
CSc1nsc(-c2ccccc2)[s+]1	> 100	> 100	–	> 100	> 100	> 100	> 100	–	–	> 100
COc1ccc(-c2nc(SCC(=O)N/N=C/c3ccc(N(C)C)cc3)[nH]c2-c2ccc(OC)cc2)cc1	> 100	> 100	–	–	> 100	> 100	–	> 100	> 100	> 100
CCCCC(C(=O)NCCNC(=O)CCC(=O)N(C)O)C(=O)NCCNC(=O)CCC(=O)N(C)O	> 100	> 100	–	> 100	> 100	> 100	> 100	> 100	> 100	> 100
COc1cc(/C=C/C(=O)CC(=O)/C=C/c2ccc(OC(=O)CCCCC3CCSS3)c(OC)c2)ccc1OC(=O)CCCCC1CCSS1 (stereo not drawn)	> 100	> 100	> 100	> 100	> 100	> 100	–	–	> 100	> 100
CC(=O)Nc1nc(C#N)[nH]c1C#N	> 100	> 100	> 100	> 100	> 100	> 100	–	> 100	> 100	> 100
